Source: PubChem BioAssay (NCI)
Where “and” joins values, the source holds several entries; their conditions need not be identical. Identical values can stand only once.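 Values below derive from 48-hour exposures of cells grown in 96-well plates, with endpoints linearly interpolated between the two concentrations bracketing the appropriate inhibition level. GI50 = concentration required for 50% inhibition of growth. At the TGI there is no net growth.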

Columns and labels:
Experiment in all cases: NCI-60 cell line screen, 48 h
SR leukemia = test system: SR leukemia
PC-3 prostate = test system: PC-3 prostate
OVCAR-4 ovarian = test system: OVCAR-4 ovarian
HCC-2998 colon = test system: HCC-2998 colon
NCI-H522 lung = test system: NCI-H522 lung
OVCAR-5 ovarian = test system: OVCAR-5 ovarian
A498 renal = test system: A498 renal
A549 NSCLC = test system: A549 NSCLC
HOP-62 NSCLC = test system: HOP-62 NSCLC
NCI/ADR-RES ovarian = test system: NCI/ADR-RES ovarian

SMILES | TGI (SR leukemia) | TGI (PC-3 prostate) | TGI (OVCAR-4 ovarian) | TGI (HCC-2998 colon) | TGI (NCI-H522 lung) | TGI (OVCAR-5 ovarian) | TGI (A498 renal) | TGI (A549 NSCLC) | TGI (HOP-62 NSCLC) | TGI (NCI/ADR-RES ovarian) | GI50 (SR leukemia) | GI50 (PC-3 prostate) | GI50 (OVCAR-4 ovarian) | GI50 (HCC-2998 colon) | GI50 (NCI-H522 lung) | GI50 (OVCAR-5 ovarian) | GI50 (A498 renal) | GI50 (A549 NSCLC) | GI50 (HOP-62 NSCLC) | GI50 (NCI/ADR-RES ovarian)
Clc1ccc(-c2c(C3=NCCCN3)nnn2-c2ccc(Cl)cc2)cc1 | 40.7 µM | > 68.4 µM | > 100 µM | 38.3 µM | 64.3 µM | > 89.8 µM | > 96.8 µM | > 100 µM | > 82.6 µM | > 86.4 µM | – | – | – | – | – | – | – | – | – | –
Fc1ccc(-c2nn3ncccc3c2-c2ccnc(Nc3ccc4c(c3)OCCO4)n2)cc1 | > 23.2 µM | > 25 µM | > 25 µM | 10.1 µM | 10.7 µM | > 25 µM | 17.1 µM | > 25 µM | > 25 µM | > 25 µM | 5.74 µM | 7.32 µM | 6.89 µM | 4.81 µM | 3.56 µM | 14 µM | 4.04 µM | 2.71 µM | 15.2 µM | 5.73 µM
Cc1ccc2c3c(c(=O)[nH]c2c1)C1(C(C#N)=C(N)O3)c2cc(Br)ccc2-c2ccc(Br)cc21 | 14.5 µM | 4 µM | 3.3 µM | 4.74 µM | 4.32 µM | 4.75 µM | 3.61 µM | 4.52 µM | 4.19 µM | > 100 µM | 2.36 µM | 1.85 µM | 1.72 µM | 2.15 µM | 1.61 µM | 2.02 µM | 1.44 µM | 2.01 µM | 1.85 µM | 6.82 µM
O=C1/C(=C/c2ccc(O)cc2)CSc2ccc(Cl)cc21 | > 100 µM | 53.8 µM | > 100 µM | 30.1 µM | 10.7 µM | 40.4 µM | 28.4 µM | > 100 µM | 45 µM | > 100 µM | 2.14 µM | 13.1 µM | 21.7 µM | 13.6 µM | 3.25 µM | 19.8 µM | 15 µM | 32 µM | 14.2 µM | 18.7 µM
CC(C)(C)c1cc(NC(=O)Cc2ccc(-c3cnc4cc(-c5cnn(CCN6CCOCC6)c5)ccc4n3)cc2)no1 | 50 µM and > 100 µM and > 3 µM | 50 µM and > 100 µM and > 3 µM | 50 µM and 14.4 µM and > 1.16 µM | 50 µM and > 100 µM and > 3 µM | 50 µM and > 100 µM and > 3 µM | 50 µM and > 100 µM and > 3 µM | 0.425 µM and 0.0791 µM | 50 µM and > 100 µM and > 3 µM | 50 µM and > 100 µM and > 3 µM | 50 µM and > 100 µM and > 3 µM | 0.197 µM and 0.336 µM and 0.0938 µM | 0.481 µM and 1.02 µM and 0.135 µM | 0.158 µM and 0.363 µM and 0.0439 µM | – | 0.298 µM and 0.465 µM and 0.0962 µM | – | 0.0663 µM and 0.0152 µM | 0.335 µM and 0.506 µM and 0.108 µM | – | 1.08 µM and 0.745 µM and 0.117 µM
Cn1cnc([N+](=O)[O-])c1[Se]c1nc(N)nc2c1ncn2C1OC(CO)C(O)C1O (centres undefined) | > 100 µM | > 100 µM | > 100 µM | > 100 µM | > 100 µM | > 100 µM | > 100 µM | > 100 µM | > 100 µM | > 100 µM | – | – | – | – | – | – | – | – | – | –
COC(=O)c1c(C)[nH]c(/C=C2\N=C(c3ccc[nH]3)C=C2OC)c1C | 0.679 µM | > 100 µM | 2.44 µM | 2.78 µM | 2.44 µM | 3.9 µM | 10.7 µM | – | – | 4.6 µM | 0.0947 µM | 0.349 µM | 0.571 µM | 0.668 µM | 0.367 µM | 1.4 µM | 2.64 µM | 0.387 µM | 0.769 µM | 0.109 µM
CON(C)C(=O)N1N=C(c2cc(F)ccc2F)SC1(CCCN)c1ccccc1 (centres undefined) | 12.4 µM and 12.6 µM | 15 µM and 14.2 µM | 24.9 µM and 24.8 µM | 4.34 µM and 4.41 µM | 10.7 µM and 5.31 µM | 15.1 µM and 15.8 µM | 13.5 µM and 13.4 µM | 17.1 µM and 18.2 µM | 18.4 µM and 15.7 µM | 5.34 µM and 2.87 µM | < 0.01 µM | 0.0179 µM and < 0.01 µM | 4.27 µM and 3.37 µM | < 0.01 µM | 0.0201 µM and < 0.01 µM | 0.0576 µM and < 0.01 µM | 0.0452 µM and < 0.01 µM | 0.024 µM and < 0.01 µM | 0.0545 µM and < 0.01 µM | 0.544 µM and 0.122 µM
CN1C(=O)c2ccccc2NC(=O)C12O[C@@H]2c1cccc(O)c1 (some centres undefined) | > 100 µM | > 100 µM | > 100 µM | > 100 µM | > 100 µM | > 100 µM | > 100 µM | > 100 µM | > 100 µM | > 100 µM | – | – | – | – | – | – | – | – | – | –
N#Cc1cccc(NC(=O)c2cc(-c3ccc(F)cc3F)ccc2O)c1 | 89.2 µM | 9.88 µM | 23 µM | 10.1 µM | 12.1 µM | 25.5 µM | 4.3 µM | 28.4 µM | 11 µM | 6.84 µM | 3.72 µM | 2.88 µM | 2.11 µM | 2.97 µM | 1.64 µM | 3.2 µM | 1.27 µM | 3.09 µM | 2.97 µM | 2.19 µM
C/C=C(\C)CC/C=C/CO[Si](C)(C)C(C)(C)C | 56.3 µM | > 100 µM | > 100 µM | > 100 µM | > 100 µM | > 100 µM | > 100 µM | > 100 µM | > 100 µM | > 100 µM | – | – | – | – | – | – | – | – | – | –
COc1cc2c3c(n(C)c(=O)c2cc1OC)-c1cc2c(cc1/C3=C\CNCCCN)OCO2 | 0.618 µM | 3.16 µM | 36.6 µM | 1.99 µM | – | 18.9 µM | 12.1 µM | > 25.1 µM | 10.9 µM | > 88.5 µM | 0.0203 µM | 0.272 µM | 3.42 µM | 0.501 µM | 0.348 µM | 1.28 µM | 3.84 µM | 1.43 µM | 0.625 µM | 5.26 µM
